How the values were obtained:
Type in all cases: physicochemical
[1] = Flowability of potassium clavulanate crystalline forms; details: crystalline form comparison, Example 5
[2] = Particle size distribution of potassium clavulanate crystalline forms; details: crystalline form comparison, Example 5
[3] = Stability / shelf-life compared with prior art crystalline forms; details: compared to rosette, needle and starburst forms; generally lower polymer level

Row | Structure (SMILES) | Flowabiiity [1] | Particle Size Distribution [2] | stability and shelf-life [3]
1 | O=C(O)[C@H]1/C(=C/CO)O[C@@H]2CC(=O)N21 [Needles/rods, potassium clavulanate] | 3.4 | 34.1-67.3 microns | 
2 | O=C(O)[C@H]1/C(=C/CO)O[C@@H]2CC(=O)N21 [Rosette-like Starbursts, potassium clavulanate] | 4.8 | 35.1- 97.9 microns | greater stability
3 | O=C(O)[C@H]1/C(=C/CO)O[C@@H]2CC(=O)N21 [Rosettes, potassium clavulanate] | 6.1 | 34.8- 66.4 microns | 
4 | O=C(O)[C@H]1/C(=C/CO)O[C@@H]2CC(=O)N21 [Starbursts/Broken Starbursts, potassium clavulanate] |  | 33.5-70.5 microns | 

— patent US6414142B1, “Process for preparing potassium clavulanate” (SmithKline Beecham Corporation, priority 1996, dated 2002)
